Measurements taken from paper PMC4607367, “Gedunin and Azadiradione: Human Pancreatic Alpha-Amylase Inhibiting Limonoids from Neem (Azadirachta indica) as Anti-Diabetic Agents” (PLoS ONE, 2015).
Entries after “also recorded” stand apart in the source; their conditions may differ.

Tests used:
[1] = Cytotoxicity in AR42J cell line (MTT); details: rat, AR42J pancreatic acinar cells
Experimental: (§1) Cells were seeded at 2×10^4 cells well^-1 onto 96 wells culture dish. […] Appropriate medium and DMSO controls were simultaneously set up. […] At the end of 24 h incubation period the culture media was removed from the samples and fresh culture media (100 μl) containing 20 μl of MTT tetrazolium bromide (5 mg ml^-1) added and incubated for 3 h at 37°C. Metabolically active cells reduce MTT to insoluble purple formazan dye crystals, which were dissolved by addition of 300 μl DMSO solution at the end of the incubation period and quantitated at 550 nm [34].

[2] = system: AR42J rat pancreatic acinar cells; experiment: Cytotoxicity in AR42J cell line (MTT); details: AR42J
Experimental: as §1

[3] = molecular target: T1, Human pancreatic α-amylase (HPA) (Homo sapiens, UniProt P04746); experiment: Human pancreatic α-amylase inhibition and stoichiometry (DNSA); assay type: biochemical
T1 construct: purchased Sigma Aldrich, USA
T1 sequence (P04746 16-511): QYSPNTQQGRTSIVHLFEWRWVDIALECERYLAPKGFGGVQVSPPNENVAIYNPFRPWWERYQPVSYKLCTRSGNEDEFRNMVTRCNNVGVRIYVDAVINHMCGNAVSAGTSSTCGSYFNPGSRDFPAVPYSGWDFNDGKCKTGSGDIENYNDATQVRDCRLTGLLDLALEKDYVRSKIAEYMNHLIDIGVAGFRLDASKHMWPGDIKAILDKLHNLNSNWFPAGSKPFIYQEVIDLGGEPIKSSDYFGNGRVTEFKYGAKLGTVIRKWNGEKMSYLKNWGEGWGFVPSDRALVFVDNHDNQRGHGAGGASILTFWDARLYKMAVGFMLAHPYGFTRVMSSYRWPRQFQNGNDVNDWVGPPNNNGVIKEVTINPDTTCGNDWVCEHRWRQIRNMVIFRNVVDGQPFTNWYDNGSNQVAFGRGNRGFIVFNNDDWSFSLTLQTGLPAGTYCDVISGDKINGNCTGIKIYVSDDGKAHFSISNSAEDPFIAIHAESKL
Text: The control HPA (0.25 U) without inhibitors represented 100% enzyme activity.

[4] = molecular target: T1, Human pancreatic α-amylase (HPA); experiment: Ligand binding to HPA by fluorescence quenching titration, thermodynamic parameters
Experimental: Ligand binding studies using fluorescence measurements of HPA were carried as described in our earlier report. […] Non-linear and linear regression analyses were used to analyze the data.
The thermodynamic parameters, association constants (K a), dissociation constant (K d) and Gibbs free energy (ΔG°) of binding for azadiradione and gedunin were determined at various temperatures 25°C to 60°C by fluorescence quenching studies.

[5] = molecular target: T2, secreted pancreatic α-amylase of AR42J cells (Rattus norvegicus, UniProt P00689); experiment: Bioactivity: inhibition of secreted pancreatic α-amylase in dexamethasone-induced AR42J cells, incl. starch load test (DNSA); assay type: cell-based; details: for Amylase inhibition at the cytotoxic IC50 concentration: 24 h, at 11.1, 13.4 and 4.1 μM respectively
T2 construct: host or cells: AR42J rat pancreatic acinar cells, induced with 10 nM dexamethasone
T2 sequence (P00689 16-508): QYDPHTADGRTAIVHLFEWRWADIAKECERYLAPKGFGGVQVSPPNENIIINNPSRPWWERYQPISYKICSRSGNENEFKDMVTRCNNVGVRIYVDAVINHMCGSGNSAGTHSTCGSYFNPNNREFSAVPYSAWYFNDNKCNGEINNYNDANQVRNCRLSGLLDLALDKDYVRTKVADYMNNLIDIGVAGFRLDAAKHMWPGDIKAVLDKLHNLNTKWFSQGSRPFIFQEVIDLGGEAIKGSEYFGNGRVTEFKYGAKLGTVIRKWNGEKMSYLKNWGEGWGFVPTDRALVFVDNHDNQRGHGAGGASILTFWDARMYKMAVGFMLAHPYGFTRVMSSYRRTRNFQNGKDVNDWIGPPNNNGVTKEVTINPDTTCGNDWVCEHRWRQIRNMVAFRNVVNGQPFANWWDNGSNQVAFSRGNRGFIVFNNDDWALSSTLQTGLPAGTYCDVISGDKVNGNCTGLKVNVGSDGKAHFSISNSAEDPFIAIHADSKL
Text: Appropriate medium and DMSO controls were simultaneously set up.

[6] = molecular target: T1, Human pancreatic α-amylase (HPA); experiment: HPA inhibition kinetics (Michaelis-Menten, Lineweaver-Burk, secondary plots); assay type: biochemical
Experimental: The mode of inhibition of HPA by the lead inhibitors azadiradione and gedunin were determined using Michaelis-Menton and Lineweaver-Burk equations. Starch (1–5mg ml^-1) and maltopentaose (0.05–0.4mM) were incubated with inhibitors-HPA for 10 and 2.5 min, respectively and the residual enzyme activity determined by DNSA method for starch and Nelson-Somogyi’s method for maltopentaose.The inhibitor constants(K i) were determined on the basis of mode of inhibition.

[7] = molecular target: T3, Porcine pancreatic α-amylase (PPA) (Sus scrofa, UniProt P00690); experiment: Porcine pancreatic α-amylase inhibition assay, chromogenic DNSA method (primary screening); assay type: biochemical; details: for IC50: starch 1% w/v, pH 6.9, 37°C; for PPA inhibition (result in words): inhibitors 13.8–214.3 μM
T3 construct: purchased SRL, Mumbai, India
T3 sequence (P00690 16-511): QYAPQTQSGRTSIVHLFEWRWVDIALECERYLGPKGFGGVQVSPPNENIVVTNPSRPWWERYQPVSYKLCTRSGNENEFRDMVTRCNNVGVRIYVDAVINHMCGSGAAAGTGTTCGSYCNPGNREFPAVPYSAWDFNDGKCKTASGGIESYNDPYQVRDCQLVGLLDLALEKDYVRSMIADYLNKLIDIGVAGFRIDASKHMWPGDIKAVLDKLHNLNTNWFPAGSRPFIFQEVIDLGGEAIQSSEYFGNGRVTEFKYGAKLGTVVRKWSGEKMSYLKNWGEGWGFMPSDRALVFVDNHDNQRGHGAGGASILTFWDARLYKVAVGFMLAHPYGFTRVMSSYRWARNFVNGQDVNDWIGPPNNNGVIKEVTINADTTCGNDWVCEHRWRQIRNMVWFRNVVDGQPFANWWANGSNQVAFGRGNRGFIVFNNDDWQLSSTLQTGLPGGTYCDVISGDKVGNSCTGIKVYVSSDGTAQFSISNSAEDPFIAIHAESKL
Experimental: The inhibition assay was performed using the chromogenic DNSA method. PPA was used for preliminary screening of α-amylase inhibitors. […] Moreover a high degree gene sequence similarity (~ 90%) exists between human salivary α-amylase (HSA) and PPA as reported by (Buisson et al 1987). Brayer et al (1995) have reported 97% primary sequence similarity between human salivary and human pancreatic α-amylases and a 70% structural similarity between PPA and HPA [11]. Thus, a high degree of similarity between PPA and HPA allows us to use it as the enzyme for screening inhibitors.
In brief, the total assay mixture consisting of 0.02 M sodium phosphate buffer, pH6.9, (containing 6 mM NaCl), 0.2–0.25 U of PPA and inhibitors (13.8–214.3 μM) in DMSO was incubated at 37°C for 10 min. After pre-incubation, the substrate starch (1%, w/v) solution was added to the reaction mixture and further incubated for 15 min. The control PPA (0.21 U) without any inhibitor represented 100% enzyme activity. One unit of enzyme activity is defined as the amount of enzyme required to release one micromole of maltose from starch/maltopentaose per min under the assay conditions. The other quantifiers calculated were: % Relative enzyme activity = (enzyme activity of test/enzyme activity of control)*100. % inhibition = (100 − % relative enzyme activity).
The IC50 values were determined from plots of percent inhibition versus inhibitor concentration and calculated by logarithmic regression analysis. To eliminate the absorbance produced by the compound, appropriate controls were included. The known PPA/HPA inhibitor acarbose was used as a positive control at a concentration range of 10–50 μM.

PPA = system: PPA; parameters: method as in PMID 22975503; details: ref [25],[26], cited from earlier work; for IC50: value in brackets
HPA = molecular target: HPA; parameters: method as in PMID 15736945; details: ref [60], cited from earlier work
[8] = linear van't Hoff plot, 298–333 K

SMILES: CC(=O)O[C@@H]1C[C@H]2C(C)(C)C(=O)C=C[C@]2(C)[C@H]2CC[C@@]3(C)[C@H](c4ccoc4)OC(=O)[C@H]4O[C@]43[C@@]21C [gedunin]
- IC50 at 24 h [1]: 13.4 µM
- Cell death ([2]; 3.3 μM): 8.6%
- Cell morphology versus controls ([2]; azadiradione 3.5 μM, gedunin 3.3 μM (Fig 3)): no morphological change
- Stoichiometry of HPA inactivation ([3]; percentage inhibition versus molar ratio of HPA and inhibitor, HPA 14.85 μM): 0.68
- IC50 ([3]; starch substrate, sigmoidal fit): 68.4 µM
- -ΔG° ([4]; 298 K): 21.16 k J mol^-1
- K a ([4]; 298 K): 5100 M⁻¹
- Kd ([4]; 298 K): 200 ± 9 µM
- -ΔG° ([4]; 303 K): 20.57 k J mol^-1
- K a ([4]; 303 K): 3500 M⁻¹
- Kd ([4]; 303 K): 300 ± 3 µM
- -ΔG° ([4]; 308 K): 16.4 k J mol^-1
- K a ([4]; 308 K): 600 M⁻¹
- Kd ([4]; 308 K): 1600 ± 1 µM
- -ΔG° ([4]; 313 K): 12.4 k J mol^-1
- K a ([4]; 313 K): 120 M⁻¹
- Kd ([4]; 313 K): 8300 ± 50 µM
- -ΔG° ([4]; 323K): 11.8 k J mol^-1
- K a ([4]; 323K): 80 M⁻¹
- Kd ([4]; 323K): 12200 ± 600 µM
- -ΔG° ([4]; 333K): 7.4 k J mol^-1
- K a ([4]; 333K): 10 M⁻¹
- Kd ([4]; 333K): 67200 ± 800 µM
- Maximal quenching of intrinsic HPA fluorescence ([4]; 350 nm, azadiradione 3.9–118 μM, gedunin 2.0–51.86 μM): 19%
- Maximum ΔG° of binding ([4]; calculated from binding constants, maximal affinity at 298 K): -5.057 kcal/mol
- Enthalpy (ΔHvH) [4, 8]: -33.44 kcal/mol
- Entropy (-ΔS) [4, 8]: 397.84 J mol^-1K^-1
- Secreted amylase inhibition in starch load test ([5]; AR42J, 0.5% (w/v) starch, up to two hours): 31.7%
- Amylase inhibition at the cytotoxic IC50 concentration ([5]; AR42J): 69.2%
- inhibition at 3.3 µM ([5]; AR-42J, AR42J, 3.3 μM): 53.4%
- Ki ([6]; maltopentaose as substrate, secondary plots): 18.6 µM
- Apparent K i ′ ([6]; starch as substrate, secondary plots): 37.4 µM
- Mode of HPA inhibition ([6]; substrates starch and maltopentaose, Lineweaver-Burk): mixed
- IC50 [7]: 72.2 µM

SMILES: CC(C)=CC(=O)O[C@H]1C[C@@H](O)[C@@]2(C)CO[C@H]3[C@@H](O)[C@@]4(C)C5=CC[C@@H](c6ccoc6)[C@]5(C)CC[C@@H]4[C@]1(C)[C@@H]32 [meliacinolin]
- IC50 with PPA (PPA): 46.74 µg/mL
- IC50 (PPA): 91.6 µM

SMILES: CC=C(C)C(=O)OC1CC(O)C23COC(C(=O)OC)C2C(C)(C24OC2(C)C2CC4OC4OC=CC42O)C(O)C2OCC1(C(=O)OC)C23 (centres unmarked) [azadirachtin B]
- PPA inhibition (result in words) [7]: No inhibition; also recorded: no bioactivity

SMILES: CC(=O)O[C@@H]1C[C@H](OC(=O)C=C(C)C)[C@@]2(C)[C@H]3[C@@H](OC[C@]13C)[C@@H](O)[C@@]1(C)C3=CC[C@@H]([C@@H]4COC(=O)C4)[C@]3(C)CC[C@@H]12 [azadirachtolide]
- IC50 with PPA (PPA): 55.8 µg/mL
- IC50 (PPA): 94.1 µM

SMILES: C[C@H]1O[C@H](O[C@H]2[C@H](O)[C@@H](O)[C@@H](O[C@H]3[C@H](O)[C@@H](O)C(O)O[C@@H]3CO)O[C@@H]2CO)[C@H](O)[C@@H](O)[C@@H]1N[C@H]1C=C(CO)[C@@H](O)[C@H](O)[C@H]1O (some centres unmarked) [Acarbose, acarbose]
- Ki (HPA; 2-chloro-4-nitrophenyl-α-maltotrioside as substrate): 22 µM
- Mode of HPA inhibition (HPA): noncompetitive

SMILES: C/C=C(\C)C(=O)O[C@H]1C[C@@H](OC(C)=O)[C@@]2(C(=O)OC)CO[C@H]3[C@@H](O)[C@@](C)([C@]45O[C@@]4(C)[C@@H]4C[C@H]5O[C@@H]5OC=C[C@@]54O)[C@H]4[C@]1(CO[C@]4(O)C(=O)OC)[C@@H]32 [azadirachtin A]
- PPA inhibition (result in words) [7]: No inhibition; also recorded: no bioactivity

SMILES: COC(=O)C[C@H]1[C@]2(C)C3=C(C)[C@H](c4ccoc4)C[C@H]3O[C@@H]2[C@H](OC(C)=O)[C@@H]2[C@]1(C)C(=O)C=C[C@@]2(C)C(=O)OC [nimbin]
- PPA inhibition (result in words) [7]: No inhibition; also recorded: no bioactivity

SMILES: CC(=O)O[C@@H]1C[C@H]2C(C)(C)C(=O)C=C[C@]2(C)[C@H]2CC[C@@]3(C)[C@H](c4ccoc4)C(=O)[C@H]4O[C@]43[C@@]21C [epoxyazadiradione]
- IC50 at 24 h [1]: 4.1 µM
- Cell death ([2]; 1.7 μM): 2.7%
- Amylase inhibition at the cytotoxic IC50 concentration ([5]; AR42J): 53.2%
- inhibition at 1.7 µM ([5]; AR-42J, read-out: Pancreatic (secreted) α-amylase inhibition): 31.8%
- IC50 [7]: 100 µM

SMILES: CC(=O)O[C@@H]1C[C@H]2C(C)(C)C(=O)C=C[C@]2(C)[C@H]2CC[C@]3(C)C(=CC[C@H]3c3ccoc3)[C@@]21C [azadirone]
- PPA inhibition (result in words) [7]: No inhibition; also recorded: no activity was observed

SMILES: C/C=C(/C)C(=O)O[C@H]1C[C@@H](OC(C)=O)[C@@]2(C)CO[C@H]3[C@H]4O[C@@H]5C[C@@H](c6ccoc6)C(C)=C5[C@@]4(C)[C@H](CC(=O)OC)[C@]1(C)[C@@H]32 [salannin]
- PPA inhibition (result in words) [7]: No inhibition; also recorded: no bioactivity
